# Laboratory results from patent publication EP1029246B1, “A METHOD AND DEVICE FOR PREVENTING IMMUNOGLOBULIN DEGRADATION IN EXTERNAL SECRETIONS” (priority 1997, dated 1999).
# Experiments:
# anti-Borrelia IgM serum = assay: Protection of anti-Borrelia IgM in spiked feces by various substances (ELISA), Example 4; settings: 33°C for 3 hours; for ELISA OD: concentrations of all cations 0.219M, dilution in ELISA 1/3000
# Method: (§1) 25 µl of a high titred anti-Borrelia IgM serum obtained from a patient with acute Borreliosis was added to 5 tubes, each containing 50 mg of a fecal sample from a healthy volunteer. Following vortexing for 30 seconds, 500 µl of the normotonic (319 mOsm/L) solutions (i) 1 X PBS (7,7 mM Na2HPO4, 2,99 mM NaH2PO4, 145 mM NaCl), (ii) 64.5 mM zinc gluconate, (iii) 64,5 mM MgCl2, (iv) 64.5 mM magnesium gluconate or (v) 96.9 mM NaCl, the latter four all dissolved in 1/3 X PBS to obtain the same osmolarity as 1 X PBS, i.e. 319 mOsm/L was added to each of the five tubes. Following vortexing for 30 seconds, the tubes were subsequently incubated at 30°C for 5 hours. Thereafter, 250 µl of a protease inhibitor cocktail (see above) was added to each of the 5 tubes. Solid matter was suspended by vortexing for another 30 seconds followed by centrifugation at 13,000 x g for 10 min. The supernatants were stored at -70°C prior to examination or immediately tested in a commercially available anti-Borrelia IgM ELISA. For the purpose of comparison, 25 µl of the anti-Borrelia IgM serum was run in the immunoassay.
# 50 milligrams of feces and 25 µl of anti-Borrelia IgM serum were incubated at 33°C for 3 hours with each of the substances described in table 2. Following incubation, the fecal samples were processed and the extracts were obtained as described in example 3.
# [1] = system: anti-Borrelia IgM antibodies; assay: Protection of anti-Borrelia IgM in spiked feces by equimolar zinc compounds (ELISA), Example 5; settings: 37°C for 4 hours, zinc concentration = 0.219M; for ELISA OD: dilution in ELISA 1/1450
# Method: 50 milligrams of feces and 25 µl of anti-Borrelia IgM serum was incubated at 37°C for 4 hours with equimolar concentrations of zinc gluconate, zinc chloride and zinc acetate (zinc concentration = 0.219M).
# [2] = system: anti-Borrelia IgM antibodies; assay: Inhibition of degradation of anti-Borrelia IgM in spiked fecal samples (anti-Borrelia IgM ELISA), Example 1; settings: for Initial ELISA, O.D.: feces plus anti-Borrelia IgM serum plus 10% zinc gluconate, 30°C for 5 hours
# Method: In example numbers 1-5, fecal samples are spiked with a single analyte of interest, i.e. a predetermined amount of a high titered anti-Borrelia IgM serum is added to fecal samples in order to determine the extent to which the protective solution of the present invention prevents the degradation of the particular analyte added.
# (§2) 50 µl of a high titer anti-Borrelia IgM serum obtained from a patient with acute Borreliosis was added to 3 tubes each containing 50 mg of a fecal sample from a healthy volunteer. Following vortexing for 30 seconds, the tubes were incubated at 30°C for 5 hours in the presence or absence of 150 µl of 10% zinc gluconate (Gluconal® ZN-G; Glucona B.V., Veendam, The Netherlands). Following incubation, 150 µl of a protease inhibitor cocktail (0.2 mM 4-{2-aminoethyl}benzenesulfonylfluoride [Calbiochem], 1 µg of aprotinin [Sigma] per ml, 10 µM leupeptin [Sigma], and 3.25 µM bestatin [Boehringer Mannheim, Indianapolis, USA]) was added. After vortexing, the tubes were centrifuged at 13,000 x g for 10 min. The supernatants were stored at -70°C or immediately tested in a commercially available anti-Borrelia IgM ELISA (IDELA™ Borrelia burgdorferi IgM, DAKO Diagnostics Ltd., Cambridgeshire, UK). For the purpose of comparison, 50 µl of anti-Borrelia IgM serum was run in the immunoassay.
# The results are given in figure 4, Y-axis: ELISA results (O.D. value); X-axis: F+S; feces plus anti-Borrelia IgM serum incubated at 30°C or on ice for 5 hours, F+S+ZG; feces plus anti-Borrelia IgM serum plus zinc gluconate incubated at 30°C for 5 hours. […]
# [3] = system: anti-Borrelia IgM antibodies; assay: Long term stability of IgM antibodies extracted from spiked fecal samples, re-analysis in anti-Borrelia IgM ELISA, Example 2; settings: extract stored at -70°C for 4 months, incubated 30°C for 5 hours
# Method: as §2
# The fecal extracts described in Example 1 were stored at -70°C for 4 months, and then re-analyzed in the anti-Borrelia IgM ELISA to check the long term stability of the antibodies stored in the presence or absence of 10% zinc gluconate.
# anti-Borrelia IgM = assay: Effect of normotonic (319 mOsm/L) solutions on degradation of anti-Borrelia IgM in spiked feces, Example 3
# Method: as §1, with “immunoassay. […]” for “immunoassay.”
compound,measurement,setting,value
Sodium chloride,ELISA OD,anti-Borrelia IgM serum,0.043 OD
N=C(NCCCCCCNC(=N)NC(=N)Nc1ccc(Cl)cc1)NC(=N)Nc1ccc(Cl)cc1 [Chlorhexidine gluconate],ELISA OD,anti-Borrelia IgM serum,0.003 OD
Copper sulphate,ELISA OD,anti-Borrelia IgM serum,0.018 OD
O=C([O-])[C@H](O)[C@@H](O)[C@H](O)[C@H](O)CO.[Na+] [Sodium gluconate],ELISA OD,anti-Borrelia IgM serum,0.087 OD
Copper acetate,ELISA OD,anti-Borrelia IgM serum,0.042 OD
Manganese chlonde,ELISA OD,anti-Borrelia IgM serum,0.184 OD
Zinc acetate [reference compound],ELISA OD,[1],0.281 OD
Zinc chloride [reference compound],ELISA OD,[1],0.011 OD
zinc gluconate,inhibition of degradation of anti-Borrelia IgM antibodies (figure 4),"[2]; 10% solution, fecal samples at 30°C for 5 hours",substantially inhibits the degradation
same,"Initial ELISA, O.D.",[2]; sample dilution 1/60,2.59 O.D.
same,"Initial ELISA, O.D.",[2]; sample dilution 1/180,2.57 O.D.
same,"Initial ELISA, O.D.",[2]; sample dilution 1/540,2.08 O.D.
same,ELISA O.D. after 4 months,[3]; sample dilution 1/60,2.48 O.D.
same,ELISA O.D. after 4 months,[3]; sample dilution 1/180,2.40 O.D.
same,ELISA O.D. after 4 months,[3]; sample dilution 1/540,1.75 O.D.
same,inhibition of degradation of anti-Borrelia IgM (Figure 5),"anti-Borrelia IgM; 64.5 mM in 1/3 X PBS, normotonic (319 mOsm/l), 30°C for 5 hours in feces",substantially inhibits the degradation
same,efficiency in conferring protection among the examined compounds (Figure 5),"anti-Borrelia IgM; compared with normotonic PBS, MgCl2, magnesium gluconate, NaCl, 30°C for 5 hours",the most efficient
same,protection among the substances tested (Table 2),anti-Borrelia IgM serum; cations 0.219M,gives the best protection
same,ELISA OD,anti-Borrelia IgM serum,0.360 OD
same,protection of anti-Borrelia IgM antibodies from degradation (Table 3),[1],significantly protects
same,ELISA OD,[1],0.910 OD
same,capacity of the IgA molecules to bind antigen (CTB),anti-CTB IgA,preserved
same,inhibition of degradation of IgA (figure 6),anti-CTB IgA,significantly inhibit the degradation
